Our source for the IC50 and inhibition values is ChEMBL document CHEMBL6182866, “Design, synthesis, molecular docking and ADME of novel phenylalanine derivatives as mushroom tyrosinase inhibitors” (Bioorg Med Chem Lett, 2025).

Active and inactive are the calls of the source. No cut-off for these calls is given here.

One assay deals with Mushroom tyrosinase (Agaricus bisporus, UniProt O42713+Q00024+C7FF04+C7FF05). Briefly: Inhibition of mushroom tyrosinase using L-DOPA as substrate assessed as reduction in diphenolase activity. The class given is protein assay.
Assay [1] addresses T1, Mushroom tyrosinase (Agaricus bisporus) (UniProt O42713+Q00024+C7FF04+C7FF05). Kind of assay: Reversible inhibition of mushroom tyrosinase using L-DOPA as substrate up to 10 uM. The format is protein assay.
Assay [2] addresses T1, Mushroom tyrosinase (Agaricus bisporus). Briefly: Competitive inhibition of mushroom tyrosinase using L-DOPA as substrate assessed as increase in Km with constant Vmax up to 10 uM by Lineweaver-Burk plot analysis. The class given is protein assay.
Assay [3] concerns the target T2, Tyrosinase (Homo sapiens) (UniProt P14679).
T2 sequence (whole entry): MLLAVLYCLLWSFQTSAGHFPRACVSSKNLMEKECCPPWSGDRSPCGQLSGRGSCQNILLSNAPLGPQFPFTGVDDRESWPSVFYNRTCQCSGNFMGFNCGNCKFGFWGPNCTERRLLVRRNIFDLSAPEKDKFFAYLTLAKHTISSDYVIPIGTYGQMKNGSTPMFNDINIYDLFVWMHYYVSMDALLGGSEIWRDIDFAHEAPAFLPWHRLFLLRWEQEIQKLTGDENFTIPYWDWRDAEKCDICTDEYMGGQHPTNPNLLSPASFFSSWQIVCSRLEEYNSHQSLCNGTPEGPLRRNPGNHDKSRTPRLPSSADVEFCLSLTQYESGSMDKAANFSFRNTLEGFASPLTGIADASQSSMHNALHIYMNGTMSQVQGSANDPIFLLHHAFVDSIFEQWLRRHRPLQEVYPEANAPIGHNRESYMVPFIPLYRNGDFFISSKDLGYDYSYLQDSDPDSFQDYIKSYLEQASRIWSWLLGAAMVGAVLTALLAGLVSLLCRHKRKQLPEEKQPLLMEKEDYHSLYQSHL
Kind of assay: Inhibition of human TYR using L-DOPA as substrate assessed as reduction in diphenolase activity by absorbance based assay.

For `O=C(OCc1ccc([N+](=O)[O-])cc1)C(Cc1ccccc1)NCc1ccc(Br)cc1` (configuration not stated), the 50% inhibitory concentration (IC50) at Mushroom tyrosinase was 11.95 µM.
Still for that read-out and setting: for `O=c1cc(CCl)occ1O` the value was 33.05 µM.
`CC(C)C(=O)Nc1nc(-c2ccc(O)cc2O)cs1`: the half-maximal inhibitory concentration (IC50) on Mushroom tyrosinase stood at 48.12 µM.
Take `O=C(OCc1ccc(F)cc1)C(Cc1ccccc1)NCc1ccc([N+](=O)[O-])cc1` (configuration not stated): the half-inhibitory concentration (IC50) at Mushroom tyrosinase turned out to be 11.77 µM.
`O=C(O)C(Cc1ccccc1)NCc1ccc(Cl)c([N+](=O)[O-])c1` (configuration not stated): the half-inhibitory concentration (IC50) on Mushroom tyrosinase was more than 100 µM.
The same measure, in the same setting: for `O=C(OCc1ccc(F)cc1)C(Cc1ccccc1)NCc1ccc(Cl)c([N+](=O)[O-])c1` (configuration not stated) the value was 6.11 µM.
On the same count and under the same terms, for `O=C(OCc1ccc(F)cc1)C(Cc1ccccc1)NCc1ccc(Cl)cc1Cl` (configuration not stated) the value was 8.33 µM; for `O=C(OCc1ccc([N+](=O)[O-])cc1)C(Cc1ccccc1)NCc1ccc([N+](=O)[O-])cc1` (configuration not stated), 10.58 µM.
On to `O=C(OCc1cc(=O)c(O)co1)C(Cc1ccccc1)NCc1ccc([N+](=O)[O-])cc1` (configuration not stated), for which, on Mushroom tyrosinase, the IC50 stood at 13.43 µM.
Same read-out and setting: for `O=C(O)C(Cc1ccccc1)NCc1ccc([N+](=O)[O-])cc1` (configuration not stated) the value was 42.4 µM.
For the compound `O=C(OCc1ccc(F)cc1)C(Cc1ccccc1)NCc1ccc(Br)cc1` (configuration not stated), the IC50 at Mushroom tyrosinase turned out to be 16.07 µM.
Take `O=C(OCc1cc(=O)c(O)co1)C(Cc1ccccc1)NCc1ccc(Cl)c([N+](=O)[O-])c1` (configuration not stated): the concentration for half-maximal inhibition (IC50) on Mushroom tyrosinase worked out at 11.65 µM.
With `O=C(OCc1cc(=O)c(O)co1)C(Cc1ccccc1)NCc1ccc(Cl)cc1Cl` (configuration not stated), the IC50 on Mushroom tyrosinase was 10.35 µM. Besides, the inhibition result in assay [1] and in assay [2] was “Active” each time.
With `O=C(O)C(Cc1ccccc1)NCc1ccc(Cl)cc1Cl` (configuration not stated), on Mushroom tyrosinase, the 50% inhibitory concentration (IC50) was more than 100 µM.
On the same count and under the same terms, for `O=C(OCc1ccc([N+](=O)[O-])cc1)C(Cc1ccccc1)NCc1ccc(Cl)cc1Cl` (configuration not stated) the value was 6.78 µM; for `O=C(O)C(Cc1ccccc1)NCc1ccc(Br)cc1` (configuration not stated), 31.05 µM.
On the same count and under the same terms, for `O=C(O)C(Cc1ccccc1)NCc1ccccc1Cl` (configuration not stated) the value was more than 100 µM; for `O=C(OCc1ccc(F)cc1)C(Cc1ccccc1)NCc1ccccc1Cl` (configuration not stated), 18.2 µM.
As to `O=C(OCc1ccc([N+](=O)[O-])cc1)C(Cc1ccccc1)NCc1ccc(Cl)c([N+](=O)[O-])c1` (configuration not stated), at Mushroom tyrosinase, the IC50 is 4.86 µM. In assay [3], the inhibition result is “Dose-dependent-effect”. Also, the inhibition entry in assay [1] and in assay [2] was “Active” each time.
For the compound `O=C(OCc1ccc([N+](=O)[O-])cc1)C(Cc1ccccc1)NCc1ccccc1Cl` (configuration not stated), at Mushroom tyrosinase, the IC50 came to 16.99 µM.
Take `O=C(OCc1cc(=O)c(O)co1)C(Cc1ccccc1)NCc1ccc(Br)cc1` (configuration not stated): the 50% inhibitory concentration (IC50) on Mushroom tyrosinase is 15.26 µM.
In the case of `O=C(OCc1cc(=O)c(O)co1)C(Cc1ccccc1)NCc1ccccc1Cl` (configuration not stated), the IC50 on Mushroom tyrosinase turned out to be 20.64 µM.

The IC50 is the point on the concentration scale where inhibition reaches its midpoint.
